For test [1], the target named is Heat shock protein HSP 90-alpha (Homo sapiens, UniProt P07900). In words: Luminescence-based dose response biochemical high throughput screening assay for inhibitors of the Heat Shock Protein 90 (HSP90). [Related pubchem assays: 1831 (Summary AID.), 1846 (Confirmation screen.), 1789 (Primary screen.)].
For test [2], the target named is T1, Protein skinhead-1 (Caenorhabditis elegans, UniProt P34707).
T1 sequence (P34707 whole entry): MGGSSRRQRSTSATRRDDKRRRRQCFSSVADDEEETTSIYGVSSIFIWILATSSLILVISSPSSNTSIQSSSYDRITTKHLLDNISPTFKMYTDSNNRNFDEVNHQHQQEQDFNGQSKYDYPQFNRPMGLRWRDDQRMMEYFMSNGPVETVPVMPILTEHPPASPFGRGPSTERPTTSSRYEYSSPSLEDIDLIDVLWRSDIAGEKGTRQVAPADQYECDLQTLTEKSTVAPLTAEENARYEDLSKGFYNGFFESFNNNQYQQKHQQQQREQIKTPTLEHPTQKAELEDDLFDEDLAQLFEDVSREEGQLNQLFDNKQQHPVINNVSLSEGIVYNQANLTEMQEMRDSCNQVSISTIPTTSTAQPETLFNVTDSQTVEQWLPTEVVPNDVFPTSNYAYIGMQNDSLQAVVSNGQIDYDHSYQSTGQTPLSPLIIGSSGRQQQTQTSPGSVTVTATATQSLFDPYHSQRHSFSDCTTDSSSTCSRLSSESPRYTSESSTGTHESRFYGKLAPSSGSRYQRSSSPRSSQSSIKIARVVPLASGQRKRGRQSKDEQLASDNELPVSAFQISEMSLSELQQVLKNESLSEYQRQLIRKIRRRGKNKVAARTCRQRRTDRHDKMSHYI
It counts as functional.

Test [3] concerns the target T2, Mannose-6-phosphate isomerase (Homo sapiens, UniProt P34949).
T2 sequence (P34949 whole entry): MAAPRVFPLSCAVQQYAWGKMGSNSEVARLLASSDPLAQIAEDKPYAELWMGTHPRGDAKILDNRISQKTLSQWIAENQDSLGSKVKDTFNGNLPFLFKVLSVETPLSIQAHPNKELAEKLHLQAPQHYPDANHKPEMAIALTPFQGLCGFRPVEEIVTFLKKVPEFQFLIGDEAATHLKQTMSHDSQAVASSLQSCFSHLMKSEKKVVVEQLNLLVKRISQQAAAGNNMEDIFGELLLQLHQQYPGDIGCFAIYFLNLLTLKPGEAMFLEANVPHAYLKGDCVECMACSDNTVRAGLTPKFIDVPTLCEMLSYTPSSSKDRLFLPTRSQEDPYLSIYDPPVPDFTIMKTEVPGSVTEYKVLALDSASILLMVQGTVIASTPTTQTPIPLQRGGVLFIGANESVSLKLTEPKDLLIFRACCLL
The test can be described thus: human PMI inhibitors, high substrate, primary screen, biochemical, fluorescence intensity, high mannose 6-phosphate (AID 1220).

Test [4] addresses T3, Protein RecA (Mycobacterium tuberculosis, UniProt P9WHJ3).
T3 sequence (P9WHJ3 whole entry): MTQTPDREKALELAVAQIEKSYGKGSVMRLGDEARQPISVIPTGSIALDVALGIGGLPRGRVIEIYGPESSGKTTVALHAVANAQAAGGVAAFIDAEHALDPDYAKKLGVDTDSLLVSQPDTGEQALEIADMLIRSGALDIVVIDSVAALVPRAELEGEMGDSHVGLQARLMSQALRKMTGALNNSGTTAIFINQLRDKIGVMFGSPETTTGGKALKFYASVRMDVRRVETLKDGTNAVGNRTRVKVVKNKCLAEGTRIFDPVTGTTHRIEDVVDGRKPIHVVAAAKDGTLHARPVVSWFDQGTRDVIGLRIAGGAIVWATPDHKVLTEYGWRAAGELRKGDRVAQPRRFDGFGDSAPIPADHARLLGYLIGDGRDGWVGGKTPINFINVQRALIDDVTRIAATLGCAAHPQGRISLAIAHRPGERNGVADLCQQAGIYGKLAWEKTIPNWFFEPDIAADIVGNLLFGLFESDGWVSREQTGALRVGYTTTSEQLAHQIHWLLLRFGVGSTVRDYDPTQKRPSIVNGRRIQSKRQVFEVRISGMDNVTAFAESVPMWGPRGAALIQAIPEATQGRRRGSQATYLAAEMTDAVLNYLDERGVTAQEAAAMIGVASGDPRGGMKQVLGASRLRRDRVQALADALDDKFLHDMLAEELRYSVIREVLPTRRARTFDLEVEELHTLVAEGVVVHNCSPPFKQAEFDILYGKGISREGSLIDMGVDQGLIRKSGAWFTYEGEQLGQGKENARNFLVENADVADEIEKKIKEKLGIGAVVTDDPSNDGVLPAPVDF
In words: Fluorescence Cell-Free Homogeneous Dose Retest to Identify Inhibitors of RecA-Intein Splicing Activity. [Related pubchem assays (depositor defined):AID2097, AID2223, AID489010, AID492950]. Type of test: functional.

Test [5] has as its target T4, Replicative DNA helicase DnaB (Mycobacterium tuberculosis, UniProt P9WMR3).
T4 sequence (P9WMR3 whole entry): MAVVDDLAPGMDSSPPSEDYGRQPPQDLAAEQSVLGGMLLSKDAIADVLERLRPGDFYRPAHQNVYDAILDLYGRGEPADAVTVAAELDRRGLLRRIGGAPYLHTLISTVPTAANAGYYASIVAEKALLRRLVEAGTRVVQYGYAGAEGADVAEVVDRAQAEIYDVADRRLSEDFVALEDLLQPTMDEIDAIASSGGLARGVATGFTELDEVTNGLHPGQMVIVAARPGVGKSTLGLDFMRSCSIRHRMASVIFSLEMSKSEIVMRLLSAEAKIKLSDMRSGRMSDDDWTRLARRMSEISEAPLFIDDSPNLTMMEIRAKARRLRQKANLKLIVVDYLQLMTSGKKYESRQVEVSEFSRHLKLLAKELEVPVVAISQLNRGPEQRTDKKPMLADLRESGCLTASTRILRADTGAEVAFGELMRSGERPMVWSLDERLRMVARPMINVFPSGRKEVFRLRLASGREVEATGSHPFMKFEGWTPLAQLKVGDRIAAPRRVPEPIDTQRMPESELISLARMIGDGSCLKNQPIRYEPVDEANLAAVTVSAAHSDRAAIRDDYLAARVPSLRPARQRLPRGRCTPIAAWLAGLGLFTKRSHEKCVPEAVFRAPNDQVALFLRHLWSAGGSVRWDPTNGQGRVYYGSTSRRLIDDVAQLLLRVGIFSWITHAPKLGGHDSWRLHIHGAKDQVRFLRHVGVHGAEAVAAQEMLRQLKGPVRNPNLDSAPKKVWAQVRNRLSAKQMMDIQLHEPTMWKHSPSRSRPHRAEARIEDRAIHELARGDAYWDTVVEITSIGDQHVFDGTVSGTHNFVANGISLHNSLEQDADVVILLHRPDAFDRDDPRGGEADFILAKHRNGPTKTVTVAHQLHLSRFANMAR
The test can be described thus: DnaB intein splicing inhibitors, dose response, biochemical, cell-free fluorescence (AID 449749). Type of test: functional.

The target of test [6] is Heat shock protein HSP90 (Homo sapiens, UniProt P07900+P08238). The test can be described thus: tumor Hsp90 inhibitor potency, dose response (AID 712). Type of test: functional.
A short description of test [7]: cytotoxicity toward HCT116 cells – cell-based, CellTiter-Glo luminescence, IC50, dose response (AID 1117332). Type of test: functional. To be noted: HCT-116.
Test [8] can be described thus: RKO cell viability reduction, dose response, CellTiter-Glo luminescence (AID 1117322). Type of test: functional.
Test [9] is described as follows: cytotoxicity toward HT-29 cells – cell-based, CellTiter-Glo luminescence, IC50, dose response (AID 1117330). It counts as functional.
A short description of test [10]: CellTiter-Glo luminescent dose response of DLD-1 viability loss (AID 1117352). It counts as functional.
Test [11] is described as follows: HCT116 cell viability decrease, GSK3B pretreatment – CellTiter-Glo, IC50, dose response (AID 1117339). Type of test: functional. Particulars: HCT-116.
The nature of test [12]: Concentration-dependent survival of SW480 colon cancer line, luminescence detection with CellTiter-Glo, half-maximal inhibitory concentration (AID 1117338). Type of test: functional.
Test [13] is described as follows: cytotoxicity toward Colo320 cells – cell-based, CellTiter-Glo luminescence, IC50, dose response (AID 1117334). Type of test: functional. Particulars: COLO 320.
The nature of test [14]: SNU-C1 cell viability reduction, dose response, CellTiter-Glo luminescence (AID 1117323). It counts as functional, cell-based.
For test [15], the system named is Vero. In words: Vero cell cytotoxicity, cytotoxicity control for flavivirus capping enzyme inhibitors (AID 588742). Type of test: functional. To be noted: Chlorocebus sabaeus.
Test [16] deals with Protein Tat (Human immunodeficiency virus type 1 group M subtype B (isolate HXB2)(HIV-1), UniProt P04608). Type of test: functional.
Protein Tat, sequence (P04608 whole entry): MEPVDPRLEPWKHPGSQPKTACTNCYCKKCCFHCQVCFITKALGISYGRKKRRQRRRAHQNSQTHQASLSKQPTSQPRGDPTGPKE

SMILES strings stand for the structures. Calls of active or inactive are those of the source.

Regarding `Cc1oc(-c2ccc(-c3ccccc3)cc2)nc1CN(C)C1CCOC1` (stereo unspecified), the IC50 was 0.235 µM (active) in test [1] and 13.7 µM (active) in [2].
For `Oc1ccc(/C=N/c2ccc3ncccc3c2)c(O)c1`, the IC50 is > 50 µM (not active) in test [3] and over 50 µM in test [6]. Moreover, the EC50 in test [4] is 29 µM (active). Also, in test [5], the AC50 is 11.5 µM (active).
As for `COc1ccc2c(c1)c1c3n2CCN(C)C3=NCC1` [METRALINDOLE], the IC50 in test [7], in test [8], in test [9], in test [10], in test [11] and in test [12] was > 20 µM (inactive) each time. Further, the IC50 in test [13] and in test [14] was > 20 µM (inactive) throughout.
On to `COC(=O)C1=C(O)/C(=C\c2ccc(CNC(=O)C(=O)Nc3ccc(C)cc3)o2)N=C1C`, for which, in test [15], the CC50 was 19 µM (active). Moreover, the IC50 in [16] is 22.5 µM (inconclusive).

Source of the values: ChEMBL document CHEMBL1201862, “PubChem BioAssay data set” (2004).
